Like-named read-outs stand apart in the source and are kept apart here.
How the values were obtained:
HOP-62 [1] = tested on: HOP-62
A549/ATCC [2] = assay: cells; settings: Homo sapiens
NCI-H226 [3] = tested on: NCI-H226
EKVX [4] = assay: cells; settings: Homo sapiens
HOP-92 [5] = tested on: HOP-92
HCC-2998 = assay: in vitro test at 1.0×10^−5 M, Colorectal cancer cell; format: cell-based; settings: 1.0×10^−5 molal concentration (M)
HOP-92 [6] = assay: cells; settings: Homo sapiens
RPMI-8226 [7] = assay: cells; settings: Homo sapiens
MOLT-4 [8] = tested on: MOLT-4
K-562 [9] = assay: cells; settings: Homo sapiens
NCI-H226 [10] = assay: cells; settings: Homo sapiens
HOP-62 [11] = assay: cells; settings: Homo sapiens
K-562 [12] = tested on: K-562
RPMI-8226 [13] = tested on: RPMI-8226
HL-60(TB) [14] = assay: cells; settings: Homo sapiens
[15] = tested on: different cancer cell lines; assay: in vitro test at 1.0×10^−5 M, summary over the cell lines; format: cell-based; settings: 1.0×10^−5 molal concentration (M)
NCI-H460 [16] = assay: cells; settings: Homo sapiens
NCI-H522 [17] = assay: cells; settings: Homo sapiens
HL-60(TB) [18] = tested on: HL-60(TB)
PC-3 = assay: cells; settings: Homo sapiens
NCI-H522 [19] = tested on: NCI-H522
NCI-H460 [20] = tested on: NCI-H460
MOLT-4 [21] = assay: cells; settings: Homo sapiens
HOP-62 [22] = assay: in vitro test at 1.0×10^−5 M, Non-small cell lung cancer cell; format: cell-based; settings: 1.0×10^−5 molal concentration (M)
DU-145 = assay: cells; settings: Homo sapiens
HS 578T = assay: in vitro test at 1.0×10^−5 M, Breast cancer cell; format: cell-based; settings: 1.0×10^−5 molal concentration (M)
NCI-H23 [23] = assay: cells; settings: Homo sapiens
EKVX [24] = tested on: EKVX
A549/ATCC [25] = tested on: A549/ATCC
NCI-H23 [26] = tested on: NCI-H23

O=C1c2ccccc2C(=O)c2c1ccc1nsnc21 [No. 22, Anthra[2,1-c][1,2,5]thiadiazole-6,11-dione]
TGI (CCRF-CEM; CCRF-CEM): >1.00E−4
Percent Growth (CCRF-CEM; Log10 Concentration −4.0): 2%
Percent Growth (CCRF-CEM; Log10 Concentration −5.0): 2%
Percent Growth (CCRF-CEM; Log10 Concentration −6.0): 74%
Percent Growth (CCRF-CEM; Log10 Concentration −7.0): 90%
Percent Growth (CCRF-CEM; Log10 Concentration −8.0): 97%
TGI (HOP-62 [1]; HOP-62): 1.21E−5
Percent Growth (HOP-62 [1]; Log10 Concentration −4.0): −49%
Percent Growth (HOP-62 [1]; Log10 Concentration −5.0): 4%
Percent Growth (HOP-62 [1]; Log10 Concentration −6.0): 107%
Percent Growth (HOP-62 [1]; Log10 Concentration −7.0): 107%
Percent Growth (HOP-62 [1]; Log10 Concentration −8.0): 107%
GI50 (A549/ATCC [2]; A549): 2.25 µM
CC50 (A549/ATCC [2]; A549, read-out: LC50): > 100 µM
Percent Growth (NCI-H226 [3]; Log10 Concentration −4.0): −5%
Percent Growth (NCI-H226 [3]; Log10 Concentration −5.0): 63%
Percent Growth (NCI-H226 [3]; Log10 Concentration −6.0): 75%
Percent Growth (NCI-H226 [3]; Log10 Concentration −7.0): 95%
Percent Growth (NCI-H226 [3]; Log10 Concentration −8.0): 97%
TGI (NCI-H226 [3]; NCI-H226): 8.53E−5
GI50 (EKVX [4]): 2.19 µM
CC50 (EKVX [4]; read-out: LC50): 56.5 µM
TGI (HOP-92 [5]; HOP-92): 9.84E−6
Percent Growth (HOP-92 [5]; Log10 Concentration −4.0): −27%
Percent Growth (HOP-92 [5]; Log10 Concentration −5.0): −1%
Percent Growth (HOP-92 [5]; Log10 Concentration −6.0): 94%
Percent Growth (HOP-92 [5]; Log10 Concentration −7.0): 88%
Percent Growth (HOP-92 [5]; Log10 Concentration −8.0): 95%
inhibition effect on cancer cell line (Table 2 value) (HCC-2998): −50.00
GI50 (HOP-92 [6]; HOP-92): 2.91 µM
CC50 (HOP-92 [6]; HOP-92, read-out: LC50): > 100 µM
GI50 (RPMI-8226 [7]; RPMI-8226): 1.53 µM
CC50 (RPMI-8226 [7]; RPMI-8226, read-out: LC50): > 100 µM
Percent Growth (MOLT-4 [8]; Log10 Concentration −4.0): −38%
Percent Growth (MOLT-4 [8]; Log10 Concentration −5.0): −40%
Percent Growth (MOLT-4 [8]; Log10 Concentration −6.0): 73%
Percent Growth (MOLT-4 [8]; Log10 Concentration −7.0): 99%
Percent Growth (MOLT-4 [8]; Log10 Concentration −8.0): 97%
TGI (MOLT-4 [8]; MOLT-4): 4.43E−6
GI50 (K-562 [9]; K562): 3.23 µM
CC50 (K-562 [9]; K562, read-out: LC50): > 100 µM
GI50 (NCI-H226 [10]; NCI-H226): 15.6 µM
CC50 (NCI-H226 [10]; NCI-H226, read-out: LC50): > 100 µM
GI50 (HOP-62 [11]; HOP-62): 3.59 µM
CC50 (HOP-62 [11]; HOP-62, read-out: LC50): > 100 µM
TGI (K-562 [12]; K-562): 4.92E−5
Percent Growth (K-562 [12]; Log10 Concentration −4.0): −8%
Percent Growth (K-562 [12]; Log10 Concentration −5.0): 19%
Percent Growth (K-562 [12]; Log10 Concentration −6.0): 83%
Percent Growth (K-562 [12]; Log10 Concentration −7.0): 96%
Percent Growth (K-562 [12]; Log10 Concentration −8.0): 101%
Percent Growth (RPMI-8226 [13]; Log10 Concentration −4.0): −20%
Percent Growth (RPMI-8226 [13]; Log10 Concentration −6.0): 61%
Percent Growth (RPMI-8226 [13]; Log10 Concentration −7.0): 94%
Percent Growth (RPMI-8226 [13]; Log10 Concentration −8.0): 100%
TGI (RPMI-8226 [13]; RPMI-8226): 9.91E−6
GI50 (HL-60(TB) [14]; HL-60): 2.14 µM
CC50 (HL-60(TB) [14]; HL-60, read-out: LC50): > 100 µM
Mean [15]: 2.68
GI50 (NCI-H460 [16]; NCI-H460): 1.84 µM
CC50 (NCI-H460 [16]; NCI-H460, read-out: LC50): 9.54 µM
GI50 (NCI-H522 [17]; NCI-H522): 3.01 µM
CC50 (NCI-H522 [17]; NCI-H522, read-out: LC50): > 100 µM
TGI (HL-60(TB) [18]; HL-60(TB)): 5.13E−6
Percent Growth (HL-60(TB) [18]; Log10 Concentration −4.0): −43%
Percent Growth (HL-60(TB) [18]; Log10 Concentration −5.0): −38%
Percent Growth (HL-60(TB) [18]; Log10 Concentration −6.0): 93%
Percent Growth (HL-60(TB) [18]; Log10 Concentration −7.0): 102%
Percent Growth (HL-60(TB) [18]; Log10 Concentration −8.0): 103%
GI50 (PC-3; PC-3): 3.03 µM
CC50 (PC-3; PC-3, read-out: LC50): > 100 µM
Percent Growth (NCI-H522 [19]; Log10 Concentration −4.0): −18%
Percent Growth (NCI-H522 [19]; Log10 Concentration −5.0): 6%
Percent Growth (NCI-H522 [19]; Log10 Concentration −6.0): 90%
Percent Growth (NCI-H522 [19]; Log10 Concentration −7.0): 103%
Percent Growth (NCI-H522 [19]; Log10 Concentration −8.0): 103%
TGI (NCI-H522 [19]; NCI-H522): 1.78E−5
Percent Growth (NCI-H460 [20]; Log10 Concentration −4.0): −58%
Percent Growth (NCI-H460 [20]; Log10 Concentration −5.0): −53%
Percent Growth (NCI-H460 [20]; Log10 Concentration −6.0): 87%
Percent Growth (NCI-H460 [20]; Log10 Concentration −7.0): 97%
Percent Growth (NCI-H460 [20]; Log10 Concentration −8.0): 100%
TGI (NCI-H460 [20]; NCI-H460): 4.19E−6
GI50 (MOLT-4 [21]; MOLT-4): 1.59 µM
CC50 (MOLT-4 [21]; MOLT-4, read-out: LC50): > 100 µM
inhibition effect on cancer cell line (Table 2 value) (HOP-62 [22]): −100.00
GI50 (DU-145; DU-145): 7.41 µM
CC50 (DU-145; DU-145, read-out: LC50): 44.2 µM
inhibition effect on cancer cell line (Table 2 value) (HS 578T): −7.40
GI50 (NCI-H23 [23]; NCI-H23): 0.802 µM
CC50 (NCI-H23 [23]; NCI-H23, read-out: LC50): > 100 µM
TGI (EKVX [24]; EKVX): 7.03E−6
Percent Growth (EKVX [24]; Log10 Concentration −4.0): −62%
Percent Growth (EKVX [24]; Log10 Concentration −5.0): −15%
Percent Growth (EKVX [24]; Log10 Concentration −6.0): 84%
Percent Growth (EKVX [24]; Log10 Concentration −7.0): 89%
Percent Growth (EKVX [24]; Log10 Concentration −8.0): 96%
TGI (A549/ATCC [25]; A549/ATCC): 5.94E−6
Percent Growth (A549/ATCC [25]; Log10 Concentration −4.0): −18%
Percent Growth (A549/ATCC [25]; Log10 Concentration −5.0): −27%
Percent Growth (A549/ATCC [25]; Log10 Concentration −6.0): 92%
Percent Growth (A549/ATCC [25]; Log10 Concentration −7.0): 93%
Percent Growth (A549/ATCC [25]; Log10 Concentration −8.0): 104%
Percent Growth (NCI-H23 [26]; Log10 Concentration −4.0): −35%
Percent Growth (NCI-H23 [26]; Log10 Concentration −5.0): −37%
Percent Growth (NCI-H23 [26]; Log10 Concentration −6.0): 46%
Percent Growth (NCI-H23 [26]; Log10 Concentration −7.0): 91%
Percent Growth (NCI-H23 [26]; Log10 Concentration −8.0): 101%
TGI (NCI-H23 [26]; NCI-H23): 3.59E−6
